From patent publication US11759508B2, “Antigenic peptides for treatment of B-cell malignancy” (ENTEROME S.A., priority 2019, dated 2023)

Experiments:
[1] = test system: T2 cells loaded with bacterial peptide or human counterpart peptide; assay: Cytotoxic assay of peptide-specific CD8+ T cells against peptide-loaded T2 cells (flow cytometry); type: cell-based
Description: CD8+ T cells expanded per above were used to perform cytotoxic assays in presence of different ratios of target and effector cells to assess their cytotoxic capacity, using flow cytometry readout. Target cells were T2 cell lines loaded with bacterial peptide or human counterpart peptide. Negative control was T2 cells unloaded and T2 cells loaded with irrelevant peptide. […] More importantly, CD22-B1, CD37B1, TNFRSF13C-B1 and MS4A1-B4-specific human T cells clones expanded in vitro were able to kill T2 cells loaded with the human TNFR13C (BAFF-R) or MS4A1 (CD20) peptide when cross-reactivity is observed with the staining (FIG. 17).

[2] = test system: HLA-A2 HHD-DR3 humanized mice; assay: ELISPOT-IFNγ on splenocytes of vaccinated HLA-A2 HHD-DR3 transgenic mice; type: in vivo, mouse
Description: (§1) Briefly, HLA-A2 HHD-DR1 humanized mice (C57BL/6JB2mtm1UncIAb-/-Tg(HLA-DRA, HLA-DRB1*0101)#GjhTg(HLA-A/H2-D/B2M)1Bpe) or HHD-DR3 humanized mice (C57BL/6JB2mtm1UncIAb-/-Tg(HLA-DRA,HLA-DRB1*0301)#GjhTg(HLA-A/H2-D/B2M)1Bpe) were assigned randomly (based on mouse sex and age) to experimental groups, wherein each group was immunized with a specific vaccination peptide (vacc-pAg) combined to a common helper peptide (h-pAg UCP2; sequence: […]; SEQ ID NO: 475; for HHD DR1 mice or h-pAg DR3; sequence […]; SEQ ID n° 473; for HHD DR3 mice) (as outlined in Table 4 below).
(§2) The peptides were provided as follows: • vacc-pAg: CD22-B1, CD19-B1, CD19-B2, CD37-B1, TNFRSF13C-B1 and MS4A1-B4 all produced and provided at a 4 mg/ml (4 mM) concentration; • h-pAg: DR3 or UCP2 re-suspended in pure distilled water at a 10 mg/mL concentration
(§3) The peptide formulation to be injected (emulsion) was prepared freshly on each day of injection and for each group. A mix for 10 animals was prepared using 2 mL luer lock syringes (460670 IV, B BRAUN) and luer connectors (Cole-Parmer, 45502-22): 500 μL of peptide mixture in syringe 1 was emulsified with 500 μL of IFA contained in syringe 2, at high speed as fast as possible until forming a thick (white foam) emulsion. Each emulsion was prepared in excess to compensate for the dead volumes at injection.
(§4) The animals were immunized on day 0 (do) with a prime injection, and on d14 with a boost injection. Each mouse was injected s.c. at tail base with 100 μL of an oil-based emulsion that contained: • 60nMole of vacc-pAg; 105nMole of UCP2 helper peptide (for HHD-DR1 mice) or 65nMole of DR3 helper peptide (for HHD-DR3 mice) • 10 μL of PBS to reach a total volume of 50 μL (per mouse); • Incomplete Freund's Adjuvant (IFA) added at 1:1 (v:v) ratio (50 μL per mouse). A.2 Analysis
(§5) Seven days after the boost injection (i.e. on d21), the animals were euthanized and the spleen was harvested. Splenocytes were prepared by mechanical disruption of the organ followed by 70 μm-filtering and Ficoll density gradient purification.
(§6) The cell suspensions were further used in an ELISPOT-IFNγ assay (Table 5). The cells were cultured in 200 μL of complete T cell medium. Experimental conditions (duplicates) were as follow: 2×10^5 total cells per well when cultured in presence of various pAg (10 μM) or medium-only; and 2×10^4 total cells when cultured in presence of CD3/CD28-loaded bead particles (T cell Activation/Expansion kit, 130-093-627, Miltenyi) (bead-to-cell ratio of 1:1). The cultures were assessed for their capacity to secrete IFNγ (Diaclone Kit Murine IFNγ ELISpot, 862.031-005PC), following the manufacturer's instructions (˜16-18 h incubation time before performing the assay). The peptides used for restimulation are described in Table 5.
(§7) Spots were counted on a CTL ELISpot reader. Data plotting and statistical analysis were performed with the Prism-5 software (GraphPad Software Inc.).
(§8) The data were provided as a number of spots per 1·10^6 total T cells. The individual average values (obtained from the triplicates) were next used to plot the group average values. Statistical analysis for comparison (to the medium condition) were performed using unpaired non-parametric test (Mann Whitney) (**: p<0.01; *: p<0.05).

[3] = test system: HLA-A2 HHD-DR1 humanized mice; assay: ELISPOT-IFNγ on splenocytes of vaccinated HLA-A2 HHD-DR1 transgenic mice; type: in vivo, mouse
Description: as §1, §2, §3, §4, §5, §6, §7, §8

Sequence: YIFEHPELL (YIFEHPETA) [CD22-B1]
- killing of T2 cells loaded with the bacteria peptide by peptide-specific human T cell clones ([1]; clones expanded in vitro, FIG. 18): capacity to kill
- killing of T2 cells loaded with the human TNFR13C (BAFF-R) or MS4A1 (CD20) peptide by peptide-specific human T cell clones ([1]; when cross-reactivity is observed with the staining (FIG. 17)): able to kill
- immunogenicity (ELISPOT-IFNγ), FIGS. 11-13 ([2]; HHD DR3 mice (printed as HHD DR1)): confirmed
- cross-reactivity of the T cells for the corresponding human peptides ([2]; summary statement for HHD DR3 and HHD DR1 mice): shown
- cross-reactivity: T cell reaction after challenge with the human corresponding peptide ([3]; HHD-DR1 mice vaccinated with the bacterial peptide): react strongly
- immunogenicity (T cell response in ELISPOT-IFNγ after vaccination) ([3]; HHD-DR1 mice, prime d0 and boost d14, splenocytes d21): significant T cell responses
